We go through two compounds from US20060052600A1, “Amino-functional chalcones” (priority 2002, published 2006).

Assay [1] concerns Plasmodium berghei K173. Kind of assay: Multiple intra venous administration in Plasmodium berghei K173 infected NMRI female mice. In kind it is in vivo. The conditions noted are these: FIG. 7. As for the experimental part: The doses stated were administered intra venously as solutions in a suitable vehicle.
Assay [2] relates to Plasmodium berghei K173. Kind of assay: Multiple oral administrations in Plasmodium berghei K173 infected NMRI female mice. In kind it is in vivo. Conditions: FIG. 8.
Assay [3] relates to Plasmodium falciparum 3D7. In words: Plasmodium falciparum assay. Conditions: Plasmodium falciparum, 3D7, read-out: Plasmodium falciparum IC50, 3D7(Cq-sen). In kind it is cell-based.
Assay [4] concerns Plasmodium falciparum DD2 (Cq-res). Kind of assay: Plasmodium falciparum assay, resistant strain. Format: cell-based. Conditions: DD2, read-out: Plasmodium falciparum IC50, DD2 (Cq-res).
The test system of assay [5] is Plasmodium falciparum 7G8(Cq-res). In words: Plasmodium falciparum assay, resistant strain. In kind it is cell-based. Conditions: 7G8, read-out: Plasmodium falciparum IC50, 7G8(Cq-res).
For assay [6], the system named is Plasmodium falciparum K1(Cq-res). In words: Plasmodium falciparum assay, resistant strain. Conditions: K1, read-out: Plasmodium falciparum IC50, K1(Cq-res). In kind it is cell-based.

For `CN(C)Cc1ccccc1C(=O)/C=C/c1ccc(Cl)cc1Cl` [A027, (E)-3-(2,4-Dichloro-phenyl)-1-(2-dimethylaminomethyl-phenyl)-propenone], the “parasitaemia, multiple intra venous administrations” value in the assay on Plasmodium berghei K173 [1] was “significant decrease in the parasitaemia”. Besides, in the assay with Plasmodium berghei K173 [2], the “parasitaemia, multiple oral administrations” value is recorded as “significant decrease in the parasitaemia”.
Regarding `CCN(CC)CCCC(C)Nc1ccnc2cc(Cl)ccc12` (stereo not drawn) [Chloroquine], the IC50 (as a rule, the midpoint of a concentration-inhibition curve) was 130 nM in assay [3], 1000 nM in assay [4], 1090 nM in assay [5] and greater than 1560 nM in assay [6].
